From ChEMBL document CHEMBL4152208, “Synthesis and structure-activity relationships of quinolinone and quinoline-based P2X7 receptor antagonists and their anti-sphere formation activities in glioblastoma cells” (Eur J Med Chem, 2018) come the findings set out here.

Common to all, as to assay type: cell-based
For assay [1], the target named is T1, P2X purinoceptor 7 (Homo sapiens) (UniProt Q99572).
T1 sequence (whole entry): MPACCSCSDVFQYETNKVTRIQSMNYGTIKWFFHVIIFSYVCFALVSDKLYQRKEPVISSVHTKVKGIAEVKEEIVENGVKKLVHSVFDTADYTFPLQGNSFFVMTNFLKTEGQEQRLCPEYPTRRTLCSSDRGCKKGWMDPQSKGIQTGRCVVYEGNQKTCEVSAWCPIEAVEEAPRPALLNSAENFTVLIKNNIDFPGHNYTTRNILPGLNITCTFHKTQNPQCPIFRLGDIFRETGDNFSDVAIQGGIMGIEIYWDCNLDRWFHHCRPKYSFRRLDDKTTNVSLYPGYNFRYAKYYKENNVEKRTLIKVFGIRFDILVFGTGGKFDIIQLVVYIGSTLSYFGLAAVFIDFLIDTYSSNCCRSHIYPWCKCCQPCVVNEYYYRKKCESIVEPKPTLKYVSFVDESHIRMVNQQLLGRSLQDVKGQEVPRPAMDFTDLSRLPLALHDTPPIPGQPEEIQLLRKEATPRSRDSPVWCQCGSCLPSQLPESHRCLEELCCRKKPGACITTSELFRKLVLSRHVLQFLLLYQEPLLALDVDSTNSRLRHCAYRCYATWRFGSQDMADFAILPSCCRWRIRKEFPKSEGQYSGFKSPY
Briefly: Antagonist activity at human P2X7 receptor expressed in HEK293 cells assessed as inhibition of BzATP-induced EtBr uptake at 10 uM after 2 hrs by fluorescence assay relative to control.

For assay [2], the target named is T1, P2X purinoceptor 7 (Homo sapiens). Briefly: Antagonist activity at human P2X7 receptor expressed in HEK293 cells assessed as inhibition of BzATP-induced EtBr uptake at 1 uM after 2 hrs by fluorescence assay relative to control.
The next assay concerns the target T2, P2X purinoceptor 7 (Homo sapiens, UniProt Q99572).
T2 sequence (Q99572 whole entry): T1 sequence (whole entry)
Briefly: Antagonist activity at human P2X7 receptor expressed in HEK293 cells assessed as inhibition of BzATP-induced EtBr uptake after 2 hrs by fluorescence assay relative to control.

Activity calls are given as the source filed them. No cut-off for these calls is given here.

With `COc1ccc(Cn2c(=O)c(C(=O)NCCc3ccc4c(c3)OCO4)cc3c(N)cccc32)cc1`, in assay [1], the inhibition entry was “inactive”.

As for `COC(=O)c1cc2c(NC(=O)C34CC5CC(CC(C5)C3)C4)cccc2n(Cc2ccc(C#N)cc2)c1=O`, the inhibition entry in assay [1] was “inactive”.

On to `CCc1ccc(Cn2c(=O)c(C(=O)OC)cc3c(NC(=O)C45CC6CC(CC(C6)C4)C5)cccc32)cc1`, for which the inhibition came to 28% in assay [2] and 38% in assay [1].

With `COC(=O)c1cc2c(NC(=O)C34CC5CC(CC(C5)C3)C4)cccc2n(Cc2ccc(Cl)cc2)c1=O`, on P2X purinoceptor 7, the IC50 is 723 nM. Moreover, the results for the inhibition in assay [2] and in assay [1] were 78% and 88%, respectively.

Turning to `COC(=O)c1cc2c(NC(=O)C34CC5CC(CC(C5)C3)C4)cccc2n(Cc2ccc(C)cc2)c1=O`, the inhibition in assay [2] was found to be 30%; in assay [1], 45%.

For the molecule `COC(=O)c1cc2c(NC(=O)CCC3CCCC3)cccc2n(Cc2ccc(OC)cc2)c1=O`, the inhibition in assay [2] came to 15%; in assay [1], 45%.

On to `COC(=O)c1cc2c(NC(=O)CCC3CCCCC3)cccc2n(Cc2ccc(OC)cc2)c1=O`, for which the inhibition in assay [2] was determined as 20%; in assay [1] it was 57%.

On to `CCCC(=O)Nc1cccc2c1cc(C(=O)NCCc1ccc(OC)cc1)c(=O)n2Cc1ccc(OC)cc1`, for which, in assay [1], the inhibition entry was “inactive”.

`CCc1ccc(CCNC(=O)c2cc3c(N)cccc3n(Cc3ccc(OC)cc3)c2=O)cc1`: the inhibition result in assay [1] is “inactive”.

`COC(=O)c1cc2c(NC(=O)CC34CC5CC(CC(C5)C3)C4)cccc2n(Cc2ccc(OC)cc2)c1=O`: the IC50 on P2X purinoceptor 7 was 861 nM. In addition, the inhibition in assay [2] came to 65%; in assay [1] it was 76%.

In the case of `CCCC(=O)Nc1cccc2c1cc(C(=O)NCCc1ccccc1)c(=O)n2Cc1ccc(OC)cc1`, the inhibition entry in assay [1] was “inactive”.

`CCc1ccc(CCNC(=O)c2cc3c(NC(=O)COc4ccc(Cl)cc4)cccc3n(Cc3ccc(OC)cc3)c2=O)cc1`: the inhibition result in assay [1] was “inactive”.

Consider `COC(=O)c1cc2c(NC(=O)Cc3ccccc3)cccc2n(Cc2ccc(OC)cc2)c1=O`, for which the inhibition was 24% in assay [2] and 43% in assay [1].

Take `COc1ccc(Cn2c(=O)c(C(=O)NCCc3ccc(C)cc3)cc3c(NC(=O)COc4ccc(Cl)cc4)cccc32)cc1`: in assay [1], the inhibition result was “inactive”.

Turning to `COc1ccc(Cn2c(=O)c(C(=O)NCCCc3ccccc3)cc3c(NC(=O)Cc4ccccc4)cccc32)cc1`, the inhibition entry in assay [1] was “inactive”.

`COC(=O)c1cc2c(NC(=O)C34CC5CC(CC(C5)C3)C4)cccc2n(Cc2ccc(OC(F)(F)F)cc2)c1=O`: the inhibition in assay [2] stood at 48%; in assay [1] it was 68%.

For `COC(=O)c1cc2c(NC(=O)C3CCCCC3)cccc2n(Cc2ccc(OC)cc2)c1=O`, at P2X purinoceptor 7, the 50% inhibitory concentration (IC50) was 810 nM. Also, the values for the inhibition in assay [2] and in assay [1] were 67% and 88%, respectively.

Take `COc1ccc(Cn2c(=O)c(C(=O)N(C)C)cc3c(NC(=O)C45CC6CC(CC(C6)C4)C5)cccc32)cc1`: the inhibition in assay [2] was determined as 14%; in assay [1] it was 54%.

On to `COc1ccc(Cn2c(=O)c(C(=O)NCCc3ccccc3)cc3c(NC(=O)CCc4ccccc4)cccc32)cc1`, for which the inhibition result in assay [1] is “inactive”.

In the case of `COc1ccc(Cn2c(=O)c(C(=O)O)cc3c(N)cccc32)cc1`, the inhibition result in assay [1] is “inactive”.

Take `CNC(=O)c1cc2c(NC(=O)C34CC5CC(CC(C5)C3)C4)cccc2n(Cc2ccc(OC)cc2)c1=O`: the inhibition in assay [2] was 6%; in assay [1], 42%.

As to `COc1ccc(Cn2c(=O)c(C(=O)NCCc3ccc(O)c(OC)c3)cc3c(N)cccc32)cc1`, in assay [1], the inhibition was 5%.

`COC(=O)c1cc2c(NC(=O)C34CC5CC(CC(C5)C3)C4)cccc2n(Cc2ccc(Br)cc2)c1=O`: the IC50 at P2X purinoceptor 7 came to 810 nM. Moreover, the inhibition in assay [2] was found to be 65%; in assay [1] it was 80%.

Consider `O=C(Nc1cccc2nc(Cl)ccc12)C12CC3CC(CC(C3)C1)C2`, for which the inhibition came to 11% in assay [2] and 51% in assay [1].

Regarding `COc1ccc(Cn2c(=O)ccc3c(NC(=O)C45CC6CC(CC(C6)C4)C5)cccc32)cc1`, the inhibition in assay [2] was 29%; in assay [1], 43%.

As to `COc1ccc(Cn2c(=O)c(C(=O)NCCc3ccc(C)cc3)cc3c(NC(=O)COc4cccc(Cl)c4)cccc32)cc1`, in assay [1], the inhibition entry was “inactive”.

`COC(=O)c1cc2c(NC(=O)C34CC5CC(CC(C5)C3)C4)cccc2nc1Cl`: the inhibition result in assay [2] is “inactive”. For the same molecule, the inhibition in assay [1] amounted to 21%.

Consider `COc1ccc(CC(=O)Nc2cccc3c2cc(C(=O)NCCc2ccc(C)cc2)c(=O)n3Cc2ccc(OC)cc2)cc1`, for which, in assay [1], the inhibition entry is “inactive”.

Take `COc1ccc(Cn2c(=O)c(C(=O)NCCc3ccc(C)cc3)cc3c(N)cccc32)cc1`: the inhibition in assay [1] is 4%.

Turning to `COc1ccc(Cn2c(=O)c(C(=O)NCCCc3ccccc3)cc3c(NC(=O)CCc4ccccc4)cccc32)cc1`, the inhibition entry in assay [1] was “inactive”.

As to `COc1ccc(Cn2c(=O)c(C(=O)NCCc3ccccc3)cc3c(N)cccc32)cc1`, the inhibition result in assay [1] is “inactive”.

With `COc1ccc(Cn2c(=O)c(C(=O)NCCc3ccc(Cl)cc3)cc3c(NC(=O)COc4cccc(Cl)c4)cccc32)cc1`, in assay [1], the inhibition result was “inactive”.

As to `COC(=O)c1cc2c(NC(=O)c3ccccc3)cccc2n(Cc2ccc(OC)cc2)c1=O`, the inhibition entry in assay [1] was “inactive”.

In the case of `O=C(CC12CC3CC(CC(C3)C1)C2)Nc1cccc2nc(-c3ccccc3O)ccc12`, the inhibition in assay [2] stood at 41%; in assay [1], 69%.

With `COc1ccc(Cn2c(=O)c(C(=O)NCCc3ccc4c(c3)OCO4)cc3c(NC(=O)Cc4ccc(Cl)cc4)cccc32)cc1`, the inhibition entry in assay [1] was “inactive”.

Regarding `COC(=O)c1cc2c(NC(=O)C34CC5CC(CC(C5)C3)C4)cccc2n(Cc2cccc(OC)c2)c1=O`, the inhibition in assay [2] came to 35%; in assay [1], 55%.

For `COc1ccc(Cn2c(=O)c(C(=O)NCCc3ccc(C)cc3)cc3c(NC(=O)CCC4CCCC4)cccc32)cc1`, the inhibition entry in assay [1] was “inactive”.

`COc1ccc(CCNC(=O)c2cc3c(NC(=O)COc4ccc(Cl)cc4)cccc3n(Cc3ccc(OC)cc3)c2=O)cc1`: the inhibition entry in assay [1] is “inactive”.

`COc1ccc(Cn2c(=O)c(C(=O)O)cc3c(NC(=O)C45CC6CC(CC(C6)C4)C5)cccc32)cc1`: the values for the inhibition in assay [2] and in assay [1] were 2% and 41%, respectively.

As to `COC(=O)c1cc2c(NC(=O)CCc3ccccc3)cccc2n(Cc2ccc(OC)cc2)c1=O`, the values for the inhibition in assay [2] and in assay [1] were 36% and 56%, respectively.

For `O=C(CC12CC3CC(CC(C3)C1)C2)Nc1cccc2nc(-c3cccc(O)c3)ccc12`, the inhibition in assay [2] came to 36%; in assay [1], 66%.

Take `COc1ccc(CCNC(=O)c2cc3c(NC(=O)CCc4ccccc4)cccc3n(Cc3ccc(OC)cc3)c2=O)cc1`: the inhibition in assay [1] is 7%.

Turning to `COc1ccc(CC(=O)Nc2cccc3c2cc(C(=O)NCCc2ccccc2)c(=O)n3Cc2ccc(OC)cc2)cc1`, the inhibition in assay [1] amounted to 8%.

Take `COc1ccc(Cn2c(=O)c(C(=O)NCCCc3ccccc3)cc3c(NC(=O)Cc4ccc(Cl)cc4)cccc32)cc1`: in assay [1], the inhibition entry was “inactive”.

For `COc1ccc(Cn2c(=O)c(C(=O)OC(C)C)cc3c(NC(=O)C45CC6CC(CC(C6)C4)C5)cccc32)cc1`, the inhibition in assay [2] turned out to be 47%; in assay [1] it was 77%.

`COC(=O)c1cc2c(NC(=O)CC3CCCCC3)cccc2n(Cc2ccc(OC)cc2)c1=O`: at P2X purinoceptor 7, the 50% inhibitory concentration (IC50) amounted to 875 nM. For the same molecule, the inhibition worked out at 63% in assay [2] and 86% in assay [1].

In the case of `COC(=O)c1cc2c(NC(=O)CC34CC5CC(CC(C5)C3)C4)cccc2nc1Cl`, the inhibition in assay [2] was 27%; in assay [1], 43%.

Consider `COc1ccc(Cn2c(=O)c(C(=O)NCCc3ccc(Cl)cc3)cc3c(NC(=O)Cc4ccccc4)cccc32)cc1`, for which, in assay [1], the inhibition result is “inactive”.

Turning to `COc1ccc(Cn2c(=O)c(C(=O)NCCCc3ccccc3)cc3c(N)cccc32)cc1`, in assay [1], the inhibition entry is “inactive”.

Turning to `COC(=O)c1cc2c(N)cccc2n(Cc2ccc(OC)cc2)c1=O`, the inhibition entry in assay [1] is “inactive”.

In the case of `COC(=O)c1cc2c(NC(=O)C34CC5CC(CC(C5)C3)C4)cccc2n(Cc2ccccc2)c1=O`, the inhibition entry in assay [1] is “inactive”.

In the case of `COc1ccc(Cn2c(=O)c(C(=O)NCCc3ccc(C)cc3)cc3c(NC(=O)CCc4ccccc4)cccc32)cc1`, the inhibition result in assay [1] was “inactive”.

For the molecule `COc1ccc(Cn2c(=O)c(C(=O)NCCc3ccc(C)cc3)cc3c(NC(=O)Cc4ccccc4)cccc32)cc1`, the inhibition in assay [1] was found to be 13%.

In the case of `COc1ccc(Cn2c(=O)c(C(=O)NCCc3ccc(Cl)cc3)cc3c(N)cccc32)cc1`, the inhibition entry in assay [1] was “inactive”.
